Reference: patent US20230113802A1, “COMPOSITION AND METHOD TO PREPARE LONG-ACTING INJECTABLE SUSPENSION CONTAINING MULTIPLE CANCER DRUGS” (University of Washington, priority 2020, published 2023)
Read-outs that look alike come from different tables or passages of the source.

Experiments:
[1] = GT localization in healthy versus 4T1 tumor bearing lung tissue; format: in vivo, BALB/c mice; settings: for concentration at 1 h / concentration at 24 h / Kp at 1 h: female, BALB/c, mouse, intravenous; for concentration at 24 h: 24 hours after DcNP; for Kp at 1 h: lung/plasma, read-out: Lung/Plasma Ratio
Protocol: Female BALB/c mice were injected with 2×10^5 4 T1 metastatic breast cancer cells that express luciferase as a marker intravenously by tail vein on day 0. Stable expression of luciferase in these cells allows for bioluminescent monitoring of tumor growth and metastasis. Over a 14-day period, mouse behavior and health conditions were monitored daily and body weight measurements were taken every 2 days. […] The bioluminescence imaging was acquired through a XENOGEN IVIS 200 imaging system (PerkinElmer, Waltham, Mass.). The bioluminescence imaging parameters for live mice were set as follows: field of view, 24; excitation filter, closed; emission filter, open; exposure time, 180 sec; binning factor, 4; f/stop, 2. Bioluminescence intensity from mice were integrated using Live Image software (PerkinElmer, Waltham, Mass.). Mice were then intravenously administered GT in DcNPs at a dose of 50 mg/kg G and 5 mg/kg T or the same dose of drug in control suspension (CrEL) and sacrificed at fixed time points.
To determine whether DcNPs enhance GT distribution into target tissues, namely cancer nodules, the differential localization of GT in DcNP or CrEL form in healthy versus cancer nodule bearing mice was investigated. Since lungs are a common metastatic site for breast cancer disease progression, a model for metastasis that forms cancer nodules in the lungs was used. Cancer nodules were established in female BALB/c mice via intravenous inoculation of syngeneic breast cancer cells (4T1). […] Once nodules were established and confirmed with IVIS imaging, mice were administered with GT in either DcNP or conventionally solubilized form at equivalent doses (50/5 mg/kg, GT) and euthanized at pre-determined time intervals. Nodule-free and nodule-bearing lungs were harvested, and lung tissue drug concentrations were compared in these two groups.

[2] = Pharmacokinetic study of GT in DcNPs compared to CrEL (Example 2), plasma G, T and dFdU; format: in vivo, BALB/c mice; settings: for concentration at 3 h / MRT / Vd / AUC(0-inf) / C0: female, BALB/c, mouse, plasma; for concentration at 3 h: intravenous; for MRT / Vd / AUC(0-inf) / C0: iv; for MRT / Vd: 5 mg/kg; for MRT: read-out: MRT (mean residence time); for Vd: read-out: Vss; for C0: read-out: C0 (concentration at time 0, back extrapolated)
From the text: Drugs extracted from biological matrices such as plasma or tissue homogenates were quantified by a Shimadzu HPLC system coupled to a 3200 QTRAP mass spectrometer (Applied Biosystems, Grand Island, N.Y.). The HPLC system consisted of two Shimadzu LC-20A pumps, a DGU-20A5 degasser, and a Shimadzu SIL-20AC HT autosampler. The mass spectrometer was equipped with an electrospray ionization (ESI) TurbolonSpray source. The system was operated with Analyst software, version 1.5.2 (ABSciex, Framingham, Mass.). Chromatographic separation of G and T was achieved using a Synergi column (100×2.0 mm; 4-μm particle size) (Phenomenex, Torrance, Calif.) with an inline C8 guard column (4.0×2.0 mm) also from Phenomenex. The flow rate was set to 0.5 mL/min with a 5 μl sample injection volume. The mobile phase for separation consisted of pump A (20 mM Ammonium Acetate in water) and B (Reagent Alcohol). […] The needle was washed with isopropanol after each injection. Analytes were monitored using multiple-reaction monitoring (MRM) for positive ions.
Statistical comparisons were performed using 2-sided t-tests with Welch's correction for unequal variances. Significance probability α was set at 0.05. Pharmacokinetic parameters from non-compartmental analysis were calculated using the trapezoidal rule and relevant pharmacokinetic equations shown in Table 3.

[3] = Control (CrEL suspension), 50/5 mg/kg G/T IV, mice
[4] = GT DcNP, 50/5 mg/kg G/T IV, mice

Q: For `CC(=O)O[C@H]1C(=O)[C@@]2(C)[C@H]([C@H](OC(=O)c3ccccc3)[C@]3(O)C[C@H](OC(=O)[C@H](O)[C@@H](NC(=O)c4ccccc4)c4ccccc4)C(C)=C1C3(C)C)[C@]1(OC(C)=O)CO[C@@H]1C[C@@H]2O` [Paclitaxel, [(1S,2S,3R,4S,7R,9S,10S,12R,15S)-4,12-diacetyloxy-15-[(2R,3S)-3-benzamido-2-hydroxy-3-phenylpropanoyl]oxy-1,9-dihydroxy-10,14,17,17-tetramethyl-11-oxo-6-oxatetracyclo[11.3.1.0^3,10.0^4,7]heptadec-13-en-2-yl] benzoate], which “lung concentration, cancer nodule bearing mice times greater than healthy mice” value ([1]; 24 hours after GT DcNP) is on record?
A: 7 times

Q: And the concentration at 1 h ([1]; lung, 1 hour after DcNP, 4T1 tumor bearing mice, read-out: Lung)?
A: 900 ± 500 ng/g

Q: And the concentration at 1 h ([1]; lung, 1 hour after DcNP, Healthy mice, 50/5 mg/kg GT IV, read-out: Lung)?
A: 600 ± 400 ng/g

Q: And the concentration at 1 h ([1]; lung, 1 hour after control (CrEL), 4T1 tumor bearing mice, 50/5 mg/kg GT IV, read-out: Lung)?
A: 1700 ± 500 ng/g

Q: What about the concentration at 1 h ([1]; lung, 1 hour after control (CrEL), Healthy mice, 50/5 mg/kg GT IV, geometric mean ± SD, read-out: Lung) of the same compound?
A: 1000 ± 300 ng/g

Q: What about the concentration at 24 h ([1]; lung, 4T1 tumor bearing mice, read-out: Lung) of the same compound?
A: 400 ± 100 ng/g

Q: What about the concentration at 24 h ([1]; lung, Healthy mice, read-out: Lung) of the same compound?
A: 60 ± 10 ng/g

Q: And the Kp at 1 h ([1]; 1 hour after DcNP, 4T1 tumor bearing mice)?
A: 0.4 ± 0.2

Q: What about the Kp at 1 h ([1]; 1 hour after DcNP, Healthy mice) of the same compound?
A: 0.4 ± 0.01

Q: And the Kp at 1 h ([1]; 1 hour after control (CrEL), 4T1 tumor bearing mice)?
A: 2.5 ± 0.8

Q: What about the Kp at 1 h ([1]; 1 hour after control (CrEL), Healthy mice) of the same compound?
A: 3.3 ± 1.2

Q: And the concentration at 1 h ([1]; plasma, 1 hour after DcNP, 4T1 tumor bearing mice, read-out: Plasma)?
A: 2200 ± 1100 ng/mL

Q: What about the concentration at 1 h ([1]; plasma, 1 hour after DcNP, Healthy mice, read-out: Plasma) of the same compound?
A: 1400 ± 900 ng/mL

Q: And the concentration at 1 h ([1]; plasma, 1 hour after control (CrEL), 4T1 tumor bearing mice, read-out: Plasma)?
A: 700 ± 100 ng/mL

Q: What about the concentration at 1 h ([1]; plasma, 1 hour after control (CrEL), Healthy mice, read-out: Plasma) of the same compound?
A: 300 ± 50 ng/mL

Q: What about the “plasma concentration at 3 hours, DcNP times greater than CrEL” value ([2]; 50/5 mg/kg G/T IV, mice) of the same compound?
A: 3.3 times

Q: And the “Dose/AUC (apparent clearance)” value [2, 3]?
A: 38.3 mL/h

Q: What about the “T1/2,app” value [2, 3] of the same compound?
A: 1.8 h

Q: And the “Dose/AUC (apparent clearance)” value [2, 4]?
A: 10.2 mL/h

Q: And the “T1/2,app” value [2, 4]?
A: 2.0 h

Q: What about the concentration at 3 h ([2]; after GT DcNP dosing, 50/5 mg/kg G/T IV, mice) of the same compound?
A: 643 ng/mL

Q: What about the concentration at 3 h ([2]; after control CrEL dosing, 50/5 mg/kg G/T IV, mice) of the same compound?
A: 194 ng/mL

Q: And the MRT [2, 3]?
A: 1 h

Q: And the Vd [2, 3]?
A: 0.0356 L

Q: And the MRT [2, 4]?
A: 1 h

Q: And the Vd [2, 4]?
A: 0.01 L

Q: What about the AUC(0-inf) [2, 3] of the same compound?
A: 2610 ng·h/mL

Q: What about the C0 [2, 3] of the same compound?
A: 17700 ng/mL

Q: What about the AUC(0-inf) [2, 4] of the same compound?
A: 9810 ng·h/mL

Q: And the C0 [2, 4]?
A: 13900 ng/mL

Q: And the “time over which concentrations in plasma were detected” value ([2]; mice administered GT DcNPs, 48-hour study)?
A: ≤ 6 h

Q: And the “plasma concentration by 24 hours” value ([2]; mice treated with the CrEL control formulation)?
A: fell below the detection limit
